Data as given in patent publication US20110021483A1, “Platinum (IV) Complexes” (PLATCO TECHNOLOGIES (PROPRIETARY) LIMITED, priority 2007, published 2011).

Legend:
Hela cancer cells = test: Anticancer activity, IC50 from dose response curves, HeLa cells; type: cell-based; conditions: concentrations 100, 50, 25, 10, 5 and 1 μM
Description: (§1) All Dose response curves were prepared for each of the chosen complexes, as well as positive controls, in order to obtain IC50 values. The concentrations used were 100, 50, 25, 10, 5 and 1 μM. IC50 values were calculated from the log-dose response curves using GraphPad Prism 4.

HT29 cancer cells = test: Anticancer activity, IC50 from dose response curves, HT29 cells; type: cell-based; conditions: concentrations 100, 50, 25, 10, 5 and 1 μM
Description: as §1

MCF7 cancer cells = test: Anticancer activity, IC50 from dose response curves, MCF7 cells; type: cell-based; conditions: concentrations 100, 50, 25, 10, 5 and 1 μM
Description: as §1

HeLa cells = test: Percent inhibition of HeLa cells at single concentration, 48 h; type: cell-based
Description: The anticancer activity of cis-diammineoxalatochloronitroplatinum(IV) (complex I-A) has been compared to cisplatin against two cell lines for 48 h at 77 uM.

MCF7 cells = test: Percent inhibition of MCF7 cells at single concentration, 48 h; type: cell-based
physchem = conditions: water
[1] = Thermal stability of the solid complex; type: physicochemical
[2] = Stability: reduction by cysteine followed by positive ion mass spectra; type: physicochemical; conditions: water/37° C./18 h, presence of cysteine
Text: This observation implies that certain platinum(IV) complexes described herein are capable of converting to their corresponding platinum(II) complexes.

Row | Structure (SMILES) | IC50 (Hela cancer cells) [µM] | IC50 (HT29 cancer cells) [µM] | IC50 (MCF7 cancer cells) [µM] | Percent inhibition of HeLa cells (HeLa cells; 48 h at 50 uM) [%] | Percent inhibition of HeLa cells (HeLa cells; 48 h at 77 uM) [%] | Percent inhibition of MCF7 cells (MCF7 cells; 48 h at 50 uM) [%] | Percent inhibition of MCF7 cells (MCF7 cells; 48 h at 77 uM) [%] | solubility (physchem) [µg/mL] | Solid complex stable up to (temperature) [1] | Reduction to platinum(II) complex upon addition of cysteine [2]
1 | O=C1[O][Pt-2]2([NH2+]C3CCCC[C@H]3[NH2+]2)[O]C1=O (stereo in doubt) [Oxaliplatin, (trans-l-1,2-diaminocyclohexane)oxalatoplatinum(II)] | 11.9 | 12.3 | 6.21 |  |  |  |  |  |  | 
2 | N.N.[Cl][Pt][Cl] [Cisplatin, cisplatin] | 10.7 | 8.11 | 14.1 | 86 | 87 | 72 | 76 |  |  | 
3 | [NH2][Pt]1([NH2])([Cl])([N+](=O)[O-])[O]C(=O)C(=O)[O]1 [I-A, cis-diammineoxalatochloronitroplatinum(IV)] |  |  |  |  |  |  |  | 2400 |  | 
4 | NC1CCCCC1N.O=C([O-])C(=O)[O-].O=N[O-].[Cl-].[Pt+4] (stereo not drawn) [II-A, (trans-l-1,2-diaminocyclohexane)oxalatochloronitro-platinum(IV)] | 4.81 | 3.07 | 5.86 |  |  |  |  |  | up to 210 °C | oxaliplatin is formed
